From PubChem BioAssay AID256 (DTP/NCI, 2004)
Values joined by “and” are separate entries in the source; they are usually repeats but may differ in a detail not shown here. Identical values can stand only once. Toxic doses and inconclusive results are not listed. How the source made its calls: active means survival T/C of 150% or more; inactive means T/C below 125% in these data.

Tested on: CD2F1 mice, L1210 leukemia ip, survival T/C
Experiment: NCI In Vivo Anticancer Drug Screen. Data for tumor model L1210 Leukemia (intraperitoneal) in CD2F1 (CDF1) mice
Details: endpoint: mean survival time, higher = longer survival
Procedure, shortened: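 Read-out first: treated-group measurement over vehicle-control measurement, expressed as a ratio. Animals bore a transplanted tumor line and were dosed with compound or vehicle.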

[1] = dose: 100.0 mg/kg/injection, schedule: Q01DX001 (ip), vehicle: saline with Tween-80
[2] = dose: 100.0 mg/kg/injection, schedule: Q04DX002 (ip), vehicle: saline with Tween-80
[3] = dose: 200.0 mg/kg/injection, schedule: Q04DX002 (ip), vehicle: saline with Tween-80
[4] = dose: 400.0 mg/kg/injection, schedule: Q04DX002 (ip), vehicle: saline with Tween-80
[5] = dose: 200.0 mg/kg/injection, schedule: Q01DX001 (ip), vehicle: saline with Tween-80
[6] = dose: 400.0 mg/kg/injection, schedule: Q01DX001 (ip), vehicle: saline with Tween-80
[7] = dose: 6.25 mg/kg/injection, schedule: Q04DX003 (ip), vehicle: saline with Tween-80
[8] = dose: 12.5 mg/kg/injection, schedule: Q04DX003 (ip), vehicle: saline with Tween-80
[9] = dose: 25.0 mg/kg/injection, schedule: Q04DX003 (ip), vehicle: saline with Tween-80
[10] = dose: 75.0 mg/kg/injection, schedule: Q01DX001 (ip), vehicle: saline
[11] = dose: 100.0 mg/kg/injection, schedule: Q04DX003 (ip), vehicle: saline with Tween-80
[12] = dose: 200.0 mg/kg/injection, schedule: Q04DX003 (ip), vehicle: saline with Tween-80
[13] = dose: 400.0 mg/kg/injection, schedule: Q04DX003 (ip), vehicle: saline with Tween-80
[14] = dose: 100.0 mg/kg/injection, schedule: Q01DX009 (ip), vehicle: saline with Tween-80
[15] = dose: 200.0 mg/kg/injection, schedule: Q01DX009 (ip), vehicle: saline with Tween-80
[16] = dose: 400.0 mg/kg/injection, schedule: Q01DX009 (ip), vehicle: saline with Tween-80
[17] = dose: 100.0 mg/kg/injection, schedule: Q04DX003 (ip), vehicle: Klucel (hydroxypropylcellulose) (HPC)
[18] = dose: 200.0 mg/kg/injection, schedule: Q04DX003 (ip), vehicle: Klucel (hydroxypropylcellulose) (HPC)

Measured: T/C

CCOC(=O)C(Cc1ccccc1)C1=NC(C)(C)CC(C)O1 (stereo unspecified)
inactive: dose: 100.0 mg/kg/injection, schedule: Q04DX003 (ip), vehicle: acetone 102 % of control | dose: 200.0 mg/kg/injection, schedule: Q04DX003 (ip), vehicle: acetone 109 % of control | dose: 400.0 mg/kg/injection, schedule: Q04DX003 (ip), vehicle: acetone 97 % of control

CC1(C)N=C(N)N=C(N)N1c1cc(Cl)cc(CCNC(=O)Nc2ccc(S(=O)(=O)F)cc2)c1
inactive: [1] 92 % of control

O=C1C=Cc2ccccc2/C1=C/c1nc(/C=C/c2ccccc2)oc1O
inactive: [2] 117 % of control | [3] 113 % of control | [4] 105 % of control

CCCCOCN(COCCCC)c1ccccc1
inactive: [1] 109 % of control | [5] 103 % of control | [6] 97 % of control

C=CC[As](=O)(O)c1ccccc1Cl
inactive: [7] 98 % of control | [8] 105 % of control | [9] 104 % of control

Cc1ccc(S(=O)(=O)OC2CCC3C4CCC5=CC(=O)CCC5(C)C4CCC23C)cc1 (stereo unspecified)
inactive: dose: 75.0 mg/kg/injection, schedule: Q04DX003 (sc), vehicle: steriod suspending solution 98 % of control | dose: 150.0 mg/kg/injection, schedule: Q04DX003 (sc), vehicle: steriod suspending solution 98 % of control | dose: 300.0 mg/kg/injection, schedule: Q04DX003 (sc), vehicle: steriod suspending solution 98 % of control

CN(C)CC1CCCCC(Br)C1=O (stereo unspecified)
inactive: [10] 98 % of control | dose: 150.0 mg/kg/injection, schedule: Q01DX001 (ip), vehicle: saline 107 % of control | dose: 300.0 mg/kg/injection, schedule: Q01DX001 (ip), vehicle: saline 117 % of control

CN(C)C=Nc1ccc([N+](=O)[O-])c2ccccc12
inactive: dose: 100.0 mg/kg/injection, schedule: Q01DX009 (ip), vehicle: other 105 % of control | dose: 200.0 mg/kg/injection, schedule: Q01DX009 (ip), vehicle: other 103 % of control | dose: 400.0 mg/kg/injection, schedule: Q01DX009 (ip), vehicle: other 96 % of control

O=C1C=C(c2ccc(O)cc2)CO1
inactive: [11] 97 % of control | [12] 94 % of control | [13] 97 % of control

CCCCOB=O
inactive: [11] 96 % of control | [12] 98 % of control | [13] 95 % of control

O=C1NC(c2ccccc2)N=C2Oc3ccccc3C=C12 (stereo unspecified)
inactive: dose: 1.56 mg/kg/injection, schedule: Q01DX009 (ip), vehicle: saline with Tween-80 103 % of control | dose: 3.12 mg/kg/injection, schedule: Q01DX009 (ip), vehicle: saline with Tween-80 94 % of control and 97 % of control and 98 % of control | dose: 6.25 mg/kg/injection, schedule: Q01DX009 (ip), vehicle: saline with Tween-80 100 % of control (2×) and 103 % of control | [14] 92 % of control

CC(=O)Nc1ccc(/C=N/NC(=O)COc2ccccc2)cc1
inactive: [14] 97 % of control | [15] 94 % of control | [16] 94 % of control

S=C(S)OCc1ccccc1.[Pt]
inactive: [9] 102 % of control | dose: 50.0 mg/kg/injection, schedule: Q04DX003 (ip), vehicle: saline with Tween-80 102 % of control | [11] 104 % of control | [12] 102 % of control | [13] 104 % of control

Nc1cccc2c1-c1ccccc1C2
inactive: dose: 50.0 mg/kg/injection, schedule: Q04DX003 (ip), vehicle: Klucel (hydroxypropylcellulose) (HPC) 105 % of control | [17] 96 % of control | [18] 102 % of control

NNC(=O)c1cccc([N+](=O)[O-])c1
inactive: [10] 109 % of control

[N-]=[N+]=NC1C(O)C(CO)OC1n1c(=O)[nH]c2c(N)ncnc21 (stereo unspecified)
inactive: dose: 12.5 mg/kg/injection, schedule: Q01DX005 (ip), vehicle: water 94 % of control | dose: 25.0 mg/kg/injection, schedule: Q01DX005 (ip), vehicle: water 99 % of control | dose: 50.0 mg/kg/injection, schedule: Q01DX005 (ip), vehicle: water 97 % of control | dose: 100.0 mg/kg/injection, schedule: Q01DX005 (ip), vehicle: water 97 % of control | dose: 200.0 mg/kg/injection, schedule: Q01DX005 (ip), vehicle: water 97 % of control

CC(=O)NC(C)(NC(=O)CCl)C(=O)O (stereo unspecified)
inactive: [2] 100 % of control | [3] 96 % of control | [4] 93 % of control

NC(=Nc1ccc(Cl)cc1)/N=C(/N)N1CCN(/C(N)=N/C(N)=Nc2ccc(Cl)cc2)CC1
inactive: dose: 50.0 mg/kg/injection, schedule: Q01DX009 (ip), vehicle: saline with Tween-80 104 % of control | [11] 98 % of control | [12] 98 % of control

O=C(O)CCSCCC(=O)O
inactive: dose: 100.0 mg/kg/injection, schedule: Q01DX001 (ip), vehicle: saline 100 % of control | dose: 200.0 mg/kg/injection, schedule: Q01DX001 (ip), vehicle: saline 105 % of control | dose: 400.0 mg/kg/injection, schedule: Q01DX001 (ip), vehicle: saline 101 % of control

Nc1nc(N)c(-c2ccc(Cl)cc2)c(CNc2cccc([N+](=O)[O-])c2)n1
inactive: dose: 100.0 mg/kg/injection, schedule: Q01DX001 (ip), vehicle: other 95 % of control | dose: 200.0 mg/kg/injection, schedule: Q01DX001 (ip), vehicle: other 94 % of control | dose: 400.0 mg/kg/injection, schedule: Q01DX001 (ip), vehicle: other 90 % of control

CCOC(=O)Nc1cc(NCc2ccccc2)c(N)c(N)n1
inactive: [1] 103 % of control | [5] 103 % of control

Cc1ccc(-c2nc(SCc3ccc(Cl)cc3)[nH]c(=O)c2CCO)cc1
inactive: [17] 96 % of control | [18] 87 % of control

COc1ccc(CCC(=O)O)cc1OC
inactive: [14] 96 % of control | [11] 98 % of control | [15] 97 % of control | [12] 96 % of control | [16] 92 % of control | [13] 104 % of control

O=C1CCC(OC(=O)c2ccccc2)CCN1 (stereo unspecified)
inactive: [14] 87 % of control | [15] 98 % of control | [16] 90 % of control

CCCCN(c1ccccc1)S(=O)(=O)c1ccc(Br)cc1
inactive: [14] 97 % of control | [11] 98 % of control | [15] 95 % of control | [12] 102 % of control | [16] 97 % of control | [13] 101 % of control

CC(C)CCOC(=O)CN(CC(=O)OCCC(C)C)c1ccccc1
inactive: [14] 89 % of control | [11] 95 % of control | [15] 91 % of control | [12] 97 % of control | [16] 97 % of control | [13] 105 % of control

CCOc1ccc(N=Cc2ccccc2O)cc1
inactive: [1] 94 % of control | [5] 94 % of control | [6] 87 % of control

Cc1c(N)c(=O)n(-c2ccccc2)n1C
inactive: dose: 100.0 mg/kg/injection, schedule: Q04DX003 (ip), vehicle: saline 97 % of control | dose: 200.0 mg/kg/injection, schedule: Q04DX003 (ip), vehicle: saline 103 % of control | dose: 400.0 mg/kg/injection, schedule: Q04DX003 (ip), vehicle: saline 101 % of control

[Co].[O-][Cl+3]([O-])([O-])O.c1ccc([PH+](CC[PH+](c2ccccc2)c2ccccc2)c2ccccc2)cc1.c1ccc([PH+](CC[PH+](c2ccccc2)c2ccccc2)c2ccccc2)cc1
inactive: [7] 94 % of control | [8] 98 % of control | [9] 110 % of control | [12] 91 % of control
